Results from ChEMBL document CHEMBL1151823, “5-Bromo-8-methoxy-1-methyl-beta-carboline, an alkaloid from the New Zealand marine bryozoan Pterocella vesiculosa” (J Nat Prod, 2009).
≈ marks a conversion by molar mass, not a printed value.

What was measured:
[1] = test system: Trichophyton mentagrophytes; experiment: Antimicrobial activity against Trichophyton mentagrophytes measured per disk; format: functional
P388 = experiment: Cytotoxicity against mouse P388 cells; format: functional, cell-based
Candida albicans = experiment: Antimicrobial activity against Candida albicans measured per disk; format: functional
Bacillus subtilis = experiment: Antimicrobial activity against Bacillus subtilis measured per disk; format: functional

Row | Structure (SMILES) | MID [1] | IC50 (P388) | MID (Candida albicans) | MID (Bacillus subtilis)
1 | C=Cc1[nH]ccc2c3ccccc3nc1-2 | 0.1 µg/mL | 0.1 µg/mL (≈ 0.515 µM) | 1.9 µg/mL | 1.9 µg/mL
2 | CCc1nccc2c1[nH]c1ccccc12 | 1.9 µg/mL | > 12.5 µg/mL | 1.9 µg/mL | 7.5 µg/mL
3 | C=Cc1nccc2c1[nH]c1c(O)cccc12 | 0.45 µg/mL | 0.1 µg/mL (≈ 0.476 µM) | 15 µg/mL | 7.5 µg/mL
4 | C=Cc1nccc2c1[nH]c1c(OC)cccc12 | 0.45 µg/mL | 0.1 µg/mL (≈ 0.446 µM) | 15 µg/mL | 7.5 µg/mL
5 | COc1ccc(Br)c2c1[nH]c1c(C)nccc12 | 7.5 µg/mL | 5.09 µg/mL (≈ 17.5 µM) | 7.5 µg/mL | 2 µg/mL
6 | CCc1nccc2c1[nH]c1c(O)cccc12 | 30 µg/mL | > 12.5 µg/mL | 30 µg/mL | 30 µg/mL
7 | CCc1nccc2c1[nH]c1c(OC)cccc12 | 7.5 µg/mL | > 12.5 µg/mL | 7.5 µg/mL | >60 µg/mL
8 | C=Cc1nccc2c1[nH]c1c(OC(C)=O)cccc12 | – | 0.65 µg/mL (≈ 2.58 µM) | – | –
9 | Cc1nccc2c1[nH]c1ccccc12 [HARMAN] | 3.7 µg/mL | > 12.5 µg/mL | 1.9 µg/mL | 7.5 µg/mL
